Results as given in ChEMBL document CHEMBL1201862, “PubChem BioAssay data set” (2004).
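Test compounds were applied to cells in 96-well plates for 48 hours at 5 doses. The concentration for 50% growth inhibition is given as GI50.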 Active and inactive are the calls of the source. Rule as the data show it: active = GI50 up to about 1.1 µM and inactive = higher.

Key:
Test in all cases: NCI tumour cell line growth inhibition, 48 h
RXF 393 = system: RXF 393
UACC-257 = system: UACC-257
HT-29 = system: HT-29
U-251 = system: U-251
SNB-75 = system: SNB-75
MOLT-4 = system: MOLT-4
OVCAR-5 = system: OVCAR-5
RPMI-8226 = system: RPMI-8226
SK-MEL-5 = system: SK-MEL-5
HOP-62 = system: HOP-62
OVCAR-4 = system: OVCAR-4
Hs-578T = system: Hs-578T
MDA-MB-435 = system: MDA-MB-435
HCT-116 = system: HCT-116
IGROV-1 = system: IGROV-1
SK-MEL-2 = system: SK-MEL-2
TK-10 = system: TK-10
UO-31 = system: UO-31
SK-MEL-28 = system: SK-MEL-28
SR = system: SR

| SMILES | GI50 (RXF 393) | GI50 (UACC-257) | GI50 (HT-29) | GI50 (U-251) | GI50 (SNB-75) | GI50 (MOLT-4) | GI50 (OVCAR-5) | GI50 (RPMI-8226) | GI50 (SK-MEL-5) | GI50 (HOP-62) | GI50 (OVCAR-4) | GI50 (Hs-578T) | GI50 (MDA-MB-435) | GI50 (HCT-116) | GI50 (IGROV-1) | GI50 (SK-MEL-2) | GI50 (TK-10) | GI50 (UO-31) | GI50 (SK-MEL-28) | GI50 (SR) |
| --- | --- | --- | --- | --- | --- | --- | --- | --- | --- | --- | --- | --- | --- | --- | --- | --- | --- | --- | --- | --- |
| O=C(NC(=O)c1ccccc1)OC(c1ccccc1)C1CO1 (stereo not given) | > 100 µM (inactive) | > 100 µM (inactive) | > 100 µM (inactive) | > 100 µM (inactive) | > 100 µM (inactive) | > 100 µM (inactive) | > 100 µM (inactive) | > 100 µM (inactive) | > 100 µM (inactive) | > 100 µM (inactive) | > 100 µM (inactive) | > 100 µM (inactive) | > 100 µM (inactive) | > 100 µM (inactive) | > 100 µM (inactive) | > 100 µM (inactive) | > 100 µM (inactive) | > 100 µM (inactive) | > 100 µM (inactive) |  |
| N#Cc1ncn(-c2ccccc2)c1N |  | > 100 µM (inactive) | > 100 µM (inactive) | > 100 µM (inactive) | > 100 µM (inactive) | > 100 µM (inactive) | > 100 µM (inactive) | > 100 µM (inactive) | > 100 µM (inactive) | > 100 µM (inactive) | > 100 µM (inactive) | > 100 µM (inactive) | > 100 µM (inactive) | > 100 µM (inactive) | > 100 µM (inactive) | > 100 µM (inactive) | > 100 µM (inactive) | > 100 µM (inactive) | > 100 µM (inactive) | > 100 µM (inactive) |
| Cc1[nH]c2ncn(/N=C/c3ccccc3)c(=N)c2c1Cc1ccccc1 | > 100 µM (inactive) | 75.3 µM (inactive) | > 100 µM (inactive) | 98.6 µM (inactive) | > 100 µM (inactive) | 53 µM (inactive) | > 100 µM (inactive) | > 100 µM (inactive) |  | > 100 µM (inactive) | > 100 µM (inactive) | > 100 µM (inactive) | 84.1 µM (inactive) | 87.3 µM (inactive) | > 100 µM (inactive) | 87.1 µM (inactive) | > 100 µM (inactive) | > 100 µM (inactive) | > 100 µM (inactive) |  |
| COC1=CC(c2ccc(Br)[nH]2)=N/C1=C/NCC(C)C |  | 2.07 µM (inactive) | 1.24 µM (inactive) | 1.51 µM (inactive) | 5.18 µM (inactive) | 1.33 µM (inactive) | 2.11 µM (inactive) | 0.412 µM (active) | 1.53 µM (inactive) | 1.47 µM (inactive) | 1.86 µM (inactive) | 2.29 µM (inactive) | 1.93 µM (inactive) | 1.44 µM (inactive) | 2.37 µM (inactive) | 1.5 µM (inactive) | 2.55 µM (inactive) | 2.06 µM (inactive) | 2.75 µM (inactive) |  |
| CCN(CC)Cc1ccc(Nc2c3ccccc3nc3ccccc23)cc1 | 1.72 µM (inactive) | 1.71 µM (inactive) | 1.91 µM (inactive) | 2.16 µM (inactive) |  | 0.955 µM (active) | 2.17 µM (inactive) |  | 1.71 µM (inactive) | 2.38 µM (inactive) | 2.57 µM (inactive) | 4.86 µM (inactive) | 2.04 µM (inactive) | 1.16 µM (inactive) | 3 µM (inactive) | 2.99 µM (inactive) | 6.14 µM (inactive) | 1.9 µM (inactive) | 1.61 µM (inactive) | 2.17 µM (inactive) |
| Cc1c(C)c(C)c(CSC(=N)N)c(C)c1C | 17.5 µM (inactive) | 14.2 µM (inactive) | 12.5 µM (inactive) | 13.6 µM (inactive) | 15.6 µM (inactive) | 15.5 µM (inactive) | 14.5 µM (inactive) | 12.6 µM (inactive) | 13.7 µM (inactive) | 15.5 µM (inactive) | 15.6 µM (inactive) | 15.6 µM (inactive) | 14.2 µM (inactive) | 12.7 µM (inactive) | 33.6 µM (inactive) | 14.6 µM (inactive) | 14.8 µM (inactive) | 6.52 µM (inactive) | 15.4 µM (inactive) |  |
| O=c1c(C(c2ccc(/C=C/c3ccccc3)cc2)c2c(O)oc3cc(O)ccc3c2=O)c(O)oc2cc(O)ccc12 | > 100 µM (inactive) | > 100 µM (inactive) | > 100 µM (inactive) | 2.88 µM (inactive) | 29 µM (inactive) | 20.9 µM (inactive) | > 100 µM (inactive) | 39.6 µM (inactive) | 21.8 µM (inactive) | > 100 µM (inactive) | > 100 µM (inactive) | 56.6 µM (inactive) | 82.2 µM (inactive) | > 100 µM (inactive) | > 100 µM (inactive) | > 100 µM (inactive) | > 100 µM (inactive) | 56.9 µM (inactive) | 11.3 µM (inactive) |  |
